Legend:
[1] = target: T1, 5-hydroxytryptamine receptor 2C (Homo sapiens, UniProt P28335); assay: In vitro binding affinity against 5-hydroxytryptamine 2C receptor using [3H]mesulergine as radioligand expressed in CHO cells; type: cell-based
T1 sequence (P28335 whole entry): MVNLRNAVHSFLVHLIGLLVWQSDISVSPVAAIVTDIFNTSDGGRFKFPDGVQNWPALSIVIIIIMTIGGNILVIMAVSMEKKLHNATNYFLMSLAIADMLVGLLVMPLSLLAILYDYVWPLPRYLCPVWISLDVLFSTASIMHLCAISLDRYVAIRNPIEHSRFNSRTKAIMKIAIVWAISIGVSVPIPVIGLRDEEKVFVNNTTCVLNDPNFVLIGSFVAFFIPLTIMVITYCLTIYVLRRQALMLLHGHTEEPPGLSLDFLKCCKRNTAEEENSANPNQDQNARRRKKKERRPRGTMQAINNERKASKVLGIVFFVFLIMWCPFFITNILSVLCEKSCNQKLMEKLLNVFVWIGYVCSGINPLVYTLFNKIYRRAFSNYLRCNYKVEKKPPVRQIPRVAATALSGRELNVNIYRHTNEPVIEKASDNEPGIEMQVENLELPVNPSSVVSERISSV

[2] = target: 5-hydroxytryptamine receptor 2A (Homo sapiens, UniProt P28223); assay: In vitro binding affinity against 5-hydroxytryptamine 2A receptor using [125I]R91150 as radioligand expressed in L929 cells; type: cell-based
[3] = system: Rattus norvegicus; assay: In vivo effective dose for the reversal of tryptamine-induced cyanosis in rat; type: functional
[4] = system: Mus musculus; assay: In vivo effective dose for the reversal of RO-4-1284 induced hypothermia in mice; type: functional
[5] = system: Rattus norvegicus; assay: In vivo effective for the antagonism of m-chlorophenyl-piperazine induced anxiety in rat; type: functional
[6] = system: Rattus norvegicus; assay: In vivo effective dose for the reversal of tryptamine-induced bilateral convulsions in rat; type: functional

5-hydroxytryptamine receptor 2A, sequence (P28223 whole entry): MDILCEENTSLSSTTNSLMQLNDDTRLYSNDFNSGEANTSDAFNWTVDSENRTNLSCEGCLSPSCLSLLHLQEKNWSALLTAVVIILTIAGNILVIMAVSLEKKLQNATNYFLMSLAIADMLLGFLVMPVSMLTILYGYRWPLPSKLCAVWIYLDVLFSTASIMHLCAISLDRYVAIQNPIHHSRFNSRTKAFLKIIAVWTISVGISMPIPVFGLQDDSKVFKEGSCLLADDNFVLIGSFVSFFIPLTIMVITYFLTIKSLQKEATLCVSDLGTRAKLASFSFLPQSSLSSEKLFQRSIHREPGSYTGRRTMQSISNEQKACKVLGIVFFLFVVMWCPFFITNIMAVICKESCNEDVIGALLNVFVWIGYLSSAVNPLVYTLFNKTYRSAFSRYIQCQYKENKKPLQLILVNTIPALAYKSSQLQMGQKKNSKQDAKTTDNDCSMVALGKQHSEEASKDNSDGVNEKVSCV

| SMILES | Ki [1] [nM] | Ki [2] [nM] | ED50 [3] [mg/kg] | ED50 [4] [mg/kg] | ED50 [5] [mg/kg] | ED50 [6] [mg/kg] |
| --- | --- | --- | --- | --- | --- | --- |
| Brc1ccc2c(c1)[C@H]1O[C@H](Cn3oc4ccc(CN5CCOCC5)cc43)C[C@H]1c1ccccc1O2 | 4100 | 189 |  |  |  |  |
| O=C1CCN1c1ccc2on(C[C@@H]3C[C@H]4c5ccccc5Oc5ccc(Br)cc5[C@H]4O3)c2c1 | 356 | 306 |  |  |  |  |
| CN(C)C[C@@H]1C[C@H]2c3ccccc3Oc3ccc(Cl)cc3[C@H]2O1 |  |  | 0.2 | 0.5 | > 2.5 | 0.08 |
| N#Cc1ccc2on(C[C@@H]3C[C@H]4c5ccccc5Oc5ccc(Br)cc5[C@H]4O3)c2c1 | 183 | 185 |  |  |  |  |
| CCOC(=O)c1ccc2on(C[C@@H]3C[C@H]4c5ccccc5Oc5ccc(Br)cc5[C@H]4O3)c2c1 | 246 | 97 |  |  |  |  |
| Cc1ccc2on(C[C@@H]3C[C@H]4c5ccccc5Oc5ccc(Br)cc5[C@H]4O3)c2c1 | 58 | 36 | 0.5 | 1.99 | 0.8 | 0.5 |
| Brc1ccc2c(c1)[C@H]1O[C@H](Cn3oc4ccc(N5CCOCC5)cc43)C[C@H]1c1ccccc1O2 | > 5450 | 306 |  |  |  |  |
| Nc1ccc2on(C[C@@H]3C[C@H]4c5ccccc5Oc5ccc(Br)cc5[C@H]4O3)c2c1 | 270 | 255 |  |  |  |  |
| Brc1ccc2c(c1)[C@H]1O[C@H](Cn3oc4ccc(-c5ccccc5)cc43)C[C@H]1c1ccccc1O2 | 183 | 307 |  |  |  |  |

Second part, led by results:

| Ki [1] [nM] | Ki [2] [nM] | SMILES | ED50 [3] [mg/kg] | ED50 [4] [mg/kg] | ED50 [5] [mg/kg] | ED50 [6] [mg/kg] |
| --- | --- | --- | --- | --- | --- | --- |
| 6 |  | CN(C)C[C@@H]1C[C@H]2c3ccccc3Oc3ccc(Br)cc3[C@H]2O1 | 0.79 | 3.15 | > 2.5 | 0.32 |
| 87 |  | CN(C)C[C@H]1C[C@H]2c3ccccc3Oc3ccc(Br)cc3[C@H]2O1 |  |  |  |  |
| 183 | 92 | CN(C)C[C@H]1C[C@H]2c3ccccc3Oc3ccccc3[C@@H]2O1 | > 2.5 | 1.25 | > 2.5 | 3.15 |
| 235 | 193 | COc1ccc2c(c1)[C@H]1O[C@@H](CN(C)C)C[C@H]1c1ccccc1O2 |  |  |  |  |
|  | 22 | COc1ccc2c(c1)[C@H]1O[C@H](CN(C)C)C[C@H]1c1ccccc1O2 | 1.26 | 0.79 | > 2.5 | 0.32 |
| 179 | 16 | CN(C)C[C@H]1C[C@@H]2c3ccccc3Oc3ccccc3[C@H]2O1 | > 2.5 | > 2.5 |  | > 2.5 |
| 63 | 423 | CN(C)C[C@H]1C[C@H]2c3ccccc3Oc3ccc(F)cc3[C@H]2O1 | 5 | 0.13 | > 2.5 | 1.98 |
| 21 |  | CN(C)C[C@H]1C[C@H]2c3ccccc3Oc3ccc(Cl)cc3[C@H]2O1 | 0.8 | 0.05 | > 2.5 | 0.32 |
|  | 104 | CN(C)C[C@@H]1C[C@H]2c3ccccc3Oc3ccc(F)cc3[C@H]2O1 | 0.5 | 0.02 | 0.5 | 0.5 |
| 157 | 95 | CN(C)c1ccc2on(C[C@@H]3C[C@H]4c5ccccc5Oc5ccc(Br)cc5[C@H]4O3)c2c1 |  |  |  |  |
